Consider 3 substances from US7842488B2, “Polynucleotides encoding a human 3-phosphoinositide- dependent protein kinase” (Medical Research Council, priority 1997, dated 2010).

Entries after “also recorded” stand apart in the source; their conditions may differ.

In experiment [1] the target is T1, GST-PKBα (Homo sapiens, UniProt P31749).
T1 construct: generate a full length cDNA encoding the PKBα gene; made in house; host or cells: human embryonic kidney 293 cells (pEBG2T), serum starved
The experiment can be described thus: GST-PKBα activity and phosphorylation with lipids in the absence of PDK1. It counts as biochemical. Particulars: same conditions as PDK1 activation. The protocol: Assay of PDK1. The assay was carried out in two stages; in the first, GST-PKBα was incubated with PDK1 in the presence of MgATP and phospholipid vesicles to permit activation of GST-PKBα.
After 10 min at 30° C., the reactions were terminated by spotting the reaction mixture on to p81 phosphocellulose paper. The papers were washed in phosphoric acid and analysed as described previously. […] The basal GST-PKBα activity is the activity measured in the absence of PDK1.

The next experiment deals with T2, GST-PDK1 (Homo sapiens, UniProt O15530).
T2 construct: Residues 52-556 of PDK1 were expressed in human embryonic kidney 293 cells; made in house; host or cells: human embryonic kidney 293 cells (pEBG2T)
T2 sequence (O15530 52-556): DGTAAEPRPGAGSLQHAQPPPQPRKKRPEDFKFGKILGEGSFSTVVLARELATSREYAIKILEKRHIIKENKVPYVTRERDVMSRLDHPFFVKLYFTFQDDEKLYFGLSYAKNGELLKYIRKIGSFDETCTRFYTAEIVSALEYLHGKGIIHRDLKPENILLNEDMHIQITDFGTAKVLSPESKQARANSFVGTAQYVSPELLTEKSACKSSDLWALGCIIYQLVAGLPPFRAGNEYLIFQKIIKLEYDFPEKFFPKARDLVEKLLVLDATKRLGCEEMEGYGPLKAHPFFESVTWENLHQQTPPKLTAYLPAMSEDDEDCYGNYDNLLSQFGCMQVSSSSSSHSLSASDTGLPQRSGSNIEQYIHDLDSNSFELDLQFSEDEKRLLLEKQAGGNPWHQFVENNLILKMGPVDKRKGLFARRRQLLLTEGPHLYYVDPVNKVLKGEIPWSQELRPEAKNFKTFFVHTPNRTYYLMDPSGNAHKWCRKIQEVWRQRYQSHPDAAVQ
The experiment can be described thus: GST-PDK1 assay: activation and phosphorylation of GST-PKBα. It counts as biochemical. The settings on record: for activation and phosphorylation of GST-PKBα by GST-PDK1 (in words): lipid 10 μM in PtdCho/PtdSer vesicles. The protocol:
(§1) FIG. 12. […] In panels A and C, the assays were terminated by making the incubations 1% (by vol) in TRITON X-100™ (see Ref 21), and the increase in specific activity of GST-PKBα was determined. In panels B and D, the reactions were terminated by making the solutions 1% in SDS, the samples were subjected to SDS/polyacrylamide gel electrophoresis, and the phosphorylation was assessed by autoradiography of the Coomassie blue-stained band corresponding to GST-PKBα.
(§2) One unit of PDK1 activity was defined as that amount required to increase the basal activity of GST-PKBα by 1 unit of activity in one min.

The next experiment concerns the target PKB (Homo sapiens, UniProt P31749). Particulars: via the N-terminal PH domain; cited from earlier work.
A further experiment has as its target T3, GST-DSTPK61 (Drosophila melanogaster, UniProt Q9W0V1).
T3 construct: residues 1-752 of DSTPK61 in E. coli as fusion proteins; made in house; host or cells: E. coli (pGEX-3X)
The experiment can be described thus: GST-DSTPK61 assay: activation and phosphorylation of GST-PKBα. It counts as biochemical. Particulars: lipid 10 μM in PtdCho/PtdSer vesicles. The protocol:
as §1, §2

Experiment [2] has as its system PDK1. Briefly: PDK1 assay: activation of GST-PKBα by purified PDK1 with phospholipid vesicles. It is filed as biochemical, rabbit. The settings on record: lipid 10 μM in vesicles of 100 μM PtdCho, 100 μM PtdSer; 30 min at 30° C. The procedure, abridged: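 Two-stage assay: GST-PKBα incubated with PDK1, MgATP and phospholipid vesicles to allow activation. Reactions run 10 min at 30 °C, stopped on p81 phosphocellulose paper and washed in phosphoric acid. Basal GST-PKBα activity measured without PDK1.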

The target of experiment [3] is T4, PDK1 (Homo sapiens, UniProt O15530).
T4 sequence (O15530 1-556): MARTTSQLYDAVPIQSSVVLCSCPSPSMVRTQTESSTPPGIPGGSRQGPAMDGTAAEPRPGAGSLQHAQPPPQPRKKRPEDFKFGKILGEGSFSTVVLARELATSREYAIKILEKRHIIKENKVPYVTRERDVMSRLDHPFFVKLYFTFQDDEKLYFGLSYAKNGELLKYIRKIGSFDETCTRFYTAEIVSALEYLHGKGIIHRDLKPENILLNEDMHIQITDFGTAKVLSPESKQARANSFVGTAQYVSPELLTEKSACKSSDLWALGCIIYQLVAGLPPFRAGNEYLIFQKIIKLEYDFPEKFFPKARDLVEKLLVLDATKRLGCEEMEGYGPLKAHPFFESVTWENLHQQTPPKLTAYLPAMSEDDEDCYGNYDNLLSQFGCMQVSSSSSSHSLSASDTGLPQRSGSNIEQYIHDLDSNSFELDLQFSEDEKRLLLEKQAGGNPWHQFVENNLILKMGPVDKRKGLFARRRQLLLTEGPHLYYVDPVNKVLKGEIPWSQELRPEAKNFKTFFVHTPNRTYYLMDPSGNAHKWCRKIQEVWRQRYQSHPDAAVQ
Briefly: Direct binding of PtdIns(3,4,5)P3 to PDK1.

The subject of experiment [4] is PDK1. Briefly: Endogenous PDK1 activity in lysates of IGF1-stimulated 293 cells. It counts as cell-based, human. The settings on record: up to 10 min. The protocol: PDK1 is not activated or phosphorylated by IGF1. 293 cells were serum starved for 16 h, stimulated with IGF1 lysed and the endogenous PDK1 activity present in the cell lysates was determined after chromatography on heparin-Sepharose (see Methods).

For experiment [5], the system named is HA-PKBα. The experiment can be described thus: HA-PKBα activity in transfected 293 cells. It counts as cell-based, human. The protocol: FIG. 14. PKBα is activated by cotransfection with PDK1 in 293 cells. (A) 293 cells were transiently transfected with DNA constructs expressing either HA-PKBα or both HA-PKBα and Myc-PDK1. The cells were then stimulated for 10 min with or without 50 ng/ml IGF1, the HA-PKBα immunoprecipitated from the lysates and assayed. The results are expressed relative to the specific activity of wild type HA-PKBα in unstimulated 293 cells ([…]). No PKBα activity was detected in mock transfections in which the cells were transfected with PCMV5 vector alone (data not shown). (B) 6 μg of protein from each lysate was electrophoresed on a 10% SDS/polyacrylamide gel and immunoblotted using either a monoclonal HA-antibody to detect HA-PKBα or a monoclonal Myc-antibody to detect Myc-PDK1. The molecular mass markers are glycogen phosphorylase (97 kDa), bovine serum albumin (67 kDa) and ovalbumin (43 kDa).
Transfection of 293 cells with HA-tagged PBKα and Myc-PDK1. Human embryonic kidney 293 cells were cultured on 10 cm diameter dishes and transfected with 2 μg/ml pCMV5 DNA constructs encoding for HA-PKBα or HA-PKBα plus Myc-PDK1 [20]. After 24 h the cells were deprived of serum for a further 16 h and then stimulated for 10 min with either […] IGF1 or Buffer. The cells were lysed in 1.0 ml of ice-cold Buffer A, the lysate centrifuged at 4° C. for 10 min at 13,000×g and HA-PKBα immunoprecipitated from aliquots of the supernatant (10 μg protein) and assayed for PKBα with the peptide RPRAATF (SEQ ID NO: 9) as described previously.

The subject of the next experiment is Myc-PDK1. The experiment can be described thus: 32P-labelling of 293 cells: phosphorylation of Myc-PDK1. The settings on record: 5 min. It counts as cell-based, human. The protocol:
(§3) ^32P-labelling of 293 cells transfected with HA-PKBα or Myc-PDK1. This was carried out essentially as described previously. Briefly, 293 cells were transfected with HA-PKBα, or with HA-PKBα plus Myc-PDK1, washed with phosphate free DMEM, incubated for 4 h with [^32P]-orthophosphate (1 mCi/ml), then stimulated with IGF1 (50 ng/ml) for 5 min. The cells were lysed, and the HA-PKBα immunoprecipitated (using 10 μg of 12CAS antibody per 10 cm dish of cells) or the Myc-PDK1 immunoprecipitated (using 10 μg of 9E10 antibody per 10 cm dish of cells). The immunoprecipitated protein was alkylated with 4-vinylpyridine, subjected to SDS/polyacrylamide gel electrophoresis, digested with trypsin and analysed by chromatography on a C18 column (Alessi et al (1996) EMBO J. 15, 6541-6551).
In order to see if IGF1 stimulation was inducing the phosphorylation of PDK1, 293 cells were transfected with Myc-PDK1 (encoding residues 52 to 556), incubated with ^32P-phosphate, stimulated with buffer or IGF1 for 5 min and ^32P-labelled Myc-PDK1 was immunoprecipitated from the lysates. After digestion with trypsin, the resulting peptides were analysed by C18 chromatography. […] One of the in vivo phosphorylation sites on PDK1 was identified as Ser-241 which lies in the equivalent position to Thr308 of PKB in the kinase domain.

For experiment [6], the system named is HA-PKBα. Briefly: 32P-labelling of transfected 293 cells: phosphorylation sites of HA-PKBα. It is filed as cell-based, human. The settings on record: 293 cells cotransfected with PDK1. The protocol: FIG. 15. Overexpression of PDK1 in cells induces phosphorylation of PKBα at Thr308. 293 cells transiently transfected with either wild type HA-PKBα (panels A and C) or HA-PKBα and Myc-PDK1 (panels B and D) were incubated with ^32P-orthophosphate, then treated for 10 min without (panels A and B) or with (panels C and D) 50 ng/ml IGF1. The ^32P-labelled HA-PKBα was immunoprecipitated from the lysates, treated with 4-vinylpyridine, and electrophoresed on 1 10% polyacrylamide gel. The HA-PKBα was excised from the gel, digested with trypsin and chromatographed on a C18 column (see legend to FIG. 13) to resolve the four major phosphopeptides which are phosphorylated at Ser-124, Ser473, Thr308 and Thr450 respectively. The identity of each phosphopeptide was established by phospho-amino acid analysis and solid phase sequencing. Similar results were obtained in two separate experiments for (panels A and C), and in three separate experiments (panels B and D).
as §3

Experiment [7] deals with GST-PKBα. Briefly: Activation of GST-PKBα after stimulation of transfected 293 cells. The settings on record: versus unstimulated 293 cells. It counts as cell-based, human. An excerpt:
Expression of GST-PKBα in 293 cells. The DNA sequence encoding PKBα was subcloned into the eukaryotic expression vector PEBG2T that has been used to overexpress GST-fusion proteins in eukaryotic cells under an EF1α promoter. A PCR reaction was set up to generate a full length cDNA encoding the PKBα gene with a BamH1site at the 5′ end of the cDNA that is in frame with the GST sequence of the PEBG2T vector and the ATG initiation codon of PKBα, and a KpnI site at the 3′ end, using the human PCMV5-HA-PKBα plasmid. The DNA sequence of the BamH1/KpnI cDNA fragment was checked and then subcloned into the unique BamH1/KpnI restriction sites on the pEBG 2T expression vector. In order to prepare GST-PKBα, 40, 10 cm diameter dishes of human embryonic kidney 293 cells were cultured and each dish transfected with 20 μg of GST PKBα expression construct using the modified calcium phosphate method described previously for overexpression of haemaglutinin tagged PKBα in 293 cells. […]

T3 sequence (Q9W0V1 85-836 Q200H/Q201E/Q317A/G443R): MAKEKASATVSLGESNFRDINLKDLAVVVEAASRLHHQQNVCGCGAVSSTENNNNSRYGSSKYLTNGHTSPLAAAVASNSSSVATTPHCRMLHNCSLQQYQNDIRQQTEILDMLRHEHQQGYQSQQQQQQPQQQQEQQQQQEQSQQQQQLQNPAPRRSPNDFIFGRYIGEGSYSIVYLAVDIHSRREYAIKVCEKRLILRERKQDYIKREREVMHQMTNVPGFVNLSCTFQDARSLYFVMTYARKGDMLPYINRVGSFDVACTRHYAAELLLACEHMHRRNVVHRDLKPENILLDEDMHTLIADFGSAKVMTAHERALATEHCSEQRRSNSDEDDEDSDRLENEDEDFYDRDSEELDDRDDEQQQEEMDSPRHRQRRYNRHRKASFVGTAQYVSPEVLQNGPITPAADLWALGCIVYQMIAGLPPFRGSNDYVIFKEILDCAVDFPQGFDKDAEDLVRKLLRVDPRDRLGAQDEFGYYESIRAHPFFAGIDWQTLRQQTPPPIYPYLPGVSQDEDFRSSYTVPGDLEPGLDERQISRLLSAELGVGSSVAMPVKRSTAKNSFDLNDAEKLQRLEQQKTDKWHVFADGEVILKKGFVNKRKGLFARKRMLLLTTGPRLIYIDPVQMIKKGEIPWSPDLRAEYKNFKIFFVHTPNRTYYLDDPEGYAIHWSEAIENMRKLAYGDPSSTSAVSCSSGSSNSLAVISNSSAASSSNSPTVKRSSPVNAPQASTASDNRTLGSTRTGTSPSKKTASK
T1 sequence (P31749 whole entry): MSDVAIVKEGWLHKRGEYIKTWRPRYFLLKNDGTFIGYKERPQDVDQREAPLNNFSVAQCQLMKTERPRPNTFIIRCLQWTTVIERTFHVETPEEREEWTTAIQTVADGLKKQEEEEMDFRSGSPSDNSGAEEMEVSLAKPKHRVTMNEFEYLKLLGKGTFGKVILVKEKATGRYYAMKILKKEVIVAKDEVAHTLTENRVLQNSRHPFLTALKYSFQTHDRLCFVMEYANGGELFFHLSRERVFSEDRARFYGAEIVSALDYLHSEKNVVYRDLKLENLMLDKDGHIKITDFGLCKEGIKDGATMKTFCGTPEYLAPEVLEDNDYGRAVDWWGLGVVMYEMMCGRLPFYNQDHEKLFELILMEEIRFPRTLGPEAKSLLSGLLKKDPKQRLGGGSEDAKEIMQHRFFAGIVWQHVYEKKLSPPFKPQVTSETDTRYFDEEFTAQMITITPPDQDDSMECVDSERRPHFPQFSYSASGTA
Chain of PKB (P31749 whole entry, species assumed, the tested form may be a part): as the sequence (P31749 whole entry) above

For “Phosphatidylinositol 3,4-bisphosphate [PtdIns(3,4)P2]”, on GST-PKBα [1], the “activation, inhibition or phosphorylation of GST-PKBα in the absence of PDK1” value is “no effect”. Besides, on GST-PDK1, the “activation and phosphorylation of GST-PKBα by GST-PDK1 (in words)” value was “activated and phosphorylated GST-PKBα”. The “fold enhancement of PDK1 activity in the presence of the inositol phospholipid” value on GST-PDK1 (versus absence of PtdIns(3,4,5)P3 or PtdIns(3,4)P2) is given as “about 1000 fold”. The “affinity of binding to PKB (in words)” value at PKB is listed as “micromolar affinity”. Also, the “activation and phosphorylation of GST-PKBα by GST-DSTPK61 (in words)” value at GST-DSTPK61 was “activated and phosphorylated GST-PKBα”. In addition, the “activation of PDK1 (in words)” value with PDK1 [2] is “only active in the presence of low micromolar concentrations”.

As to “Phosphatidylinositol 3,4,5-tris phosphate [PtdIns(3,4,5)P3]”, the “activation and phosphorylation of GST-PKBα by GST-PDK1 (in words)” value on GST-PDK1 is “activated and phosphorylated GST-PKBα”. Also, the “activation and phosphorylation of GST-PKBα by GST-DSTPK61 (in words)” value at GST-DSTPK61 is “activated and phosphorylated GST-PKBα”. The “activation of PDK1 (in words)” value with PDK1 [2] is recorded as “only active in the presence of low micromolar concentrations”. In addition, the “binding to PDK1 (in words)” value at PDK1 [3] was “bind PtdIns(3,4,5)P3 directly”.

Turning to “IGF1: growth factor IGF1 used to stimulate 293 cells”, the “endogenous PDK1 activity after stimulation of 293 cells” value in the experiment on PDK1 [4] is reported as “did not result in any activation or inhibition; also recorded: did not affect”. In addition, the “fold increase of HA-PKBα activity after stimulation” value with HA-PKBα [5] (293 cells transfected with HA-PKBα alone, 10 min) turned out to be 40 fold; with HA-PKBα [5] (293 cells transfected with both HA-PKBα and Myc-PDK1), 70 fold. Also, the “phosphorylation of Myc-PDK1 tryptic peptides after stimulation of 293 cells” value with Myc-PDK1 is reported as “does not alter the phosphorylation; also recorded: did not affect”. For the same substance, the “further fold increase of Thr308 phosphorylation of HA-PKBα” value with HA-PKBα [6] was 4 fold. For the same substance, in the experiment on GST-PKBα [7], the “fold activation of GST-PKBα after stimulation of 293 cells” value was 45 fold.
